Measured values taken from publication PMC13600255 (Journal of the American Chemical Society, 2025).
Entries after “also recorded” stand apart in the source; their conditions may differ. Where two headings read alike, the source gives them in different places.

Columns and labels:
[1] = target: hVMAT2 (Homo sapiens, UniProt Q05940); assay: FFN206 fluorescent substrate uptake inhibition in hVMAT2-HEK cells; assay type: cell-based
[2] = target: hSERT (Homo sapiens, UniProt P31645); assay type: cell-based; conditions: for IC50: read-out: IC50, hSERT (uptake inhibition, APP+), hSERT-HEK cells, fluorescent substrate APP+, n = 4
Chain of hSERT (P31645 whole entry): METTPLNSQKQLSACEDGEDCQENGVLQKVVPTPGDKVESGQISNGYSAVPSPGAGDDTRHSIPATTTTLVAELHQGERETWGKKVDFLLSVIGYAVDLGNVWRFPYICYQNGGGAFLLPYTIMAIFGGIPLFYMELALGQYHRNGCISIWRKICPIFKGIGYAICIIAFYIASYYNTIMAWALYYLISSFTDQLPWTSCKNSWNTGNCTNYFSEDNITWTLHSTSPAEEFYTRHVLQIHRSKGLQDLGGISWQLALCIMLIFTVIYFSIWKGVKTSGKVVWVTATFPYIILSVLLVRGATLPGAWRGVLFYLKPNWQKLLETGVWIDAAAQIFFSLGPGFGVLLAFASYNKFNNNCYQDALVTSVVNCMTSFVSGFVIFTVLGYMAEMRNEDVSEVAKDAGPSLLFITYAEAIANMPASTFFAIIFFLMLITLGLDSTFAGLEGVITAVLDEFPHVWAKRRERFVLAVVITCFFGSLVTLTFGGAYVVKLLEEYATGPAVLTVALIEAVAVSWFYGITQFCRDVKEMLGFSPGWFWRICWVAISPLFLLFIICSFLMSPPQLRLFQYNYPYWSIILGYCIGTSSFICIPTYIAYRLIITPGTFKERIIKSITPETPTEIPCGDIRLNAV

[3] = target: rat SERT (rSERT) (Rattus norvegicus, UniProt P31652); assay: [3H]5-HT uptake inhibition in rat brain synaptosomes; assay type: biochemical; conditions: for IC50: rat brain synaptosomes
Chain of rat SERT (rSERT) (P31652 whole entry): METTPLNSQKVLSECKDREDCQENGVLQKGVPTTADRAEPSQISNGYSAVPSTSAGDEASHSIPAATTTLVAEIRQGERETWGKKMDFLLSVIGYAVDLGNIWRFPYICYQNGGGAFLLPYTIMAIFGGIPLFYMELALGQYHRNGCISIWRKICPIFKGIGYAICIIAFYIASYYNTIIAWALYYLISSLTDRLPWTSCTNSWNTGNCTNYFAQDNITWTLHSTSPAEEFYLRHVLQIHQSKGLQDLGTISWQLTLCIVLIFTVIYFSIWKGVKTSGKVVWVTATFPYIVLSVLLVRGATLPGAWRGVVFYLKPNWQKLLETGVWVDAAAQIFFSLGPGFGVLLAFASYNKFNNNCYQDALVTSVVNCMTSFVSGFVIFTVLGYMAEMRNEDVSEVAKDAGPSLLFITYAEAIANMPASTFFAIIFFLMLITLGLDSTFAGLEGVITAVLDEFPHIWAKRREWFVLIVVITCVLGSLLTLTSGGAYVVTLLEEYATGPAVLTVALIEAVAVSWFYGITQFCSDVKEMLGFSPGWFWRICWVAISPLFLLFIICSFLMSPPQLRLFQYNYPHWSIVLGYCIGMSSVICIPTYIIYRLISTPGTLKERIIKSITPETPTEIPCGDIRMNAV

[4] = target: rat VMAT2 (rVMAT2) (Rattus norvegicus, UniProt Q01827); assay: [3H]5-HT uptake inhibition in rat brain synaptic vesicular fraction; assay type: biochemical
Chain of rat VMAT2 (rVMAT2) (Q01827 whole entry): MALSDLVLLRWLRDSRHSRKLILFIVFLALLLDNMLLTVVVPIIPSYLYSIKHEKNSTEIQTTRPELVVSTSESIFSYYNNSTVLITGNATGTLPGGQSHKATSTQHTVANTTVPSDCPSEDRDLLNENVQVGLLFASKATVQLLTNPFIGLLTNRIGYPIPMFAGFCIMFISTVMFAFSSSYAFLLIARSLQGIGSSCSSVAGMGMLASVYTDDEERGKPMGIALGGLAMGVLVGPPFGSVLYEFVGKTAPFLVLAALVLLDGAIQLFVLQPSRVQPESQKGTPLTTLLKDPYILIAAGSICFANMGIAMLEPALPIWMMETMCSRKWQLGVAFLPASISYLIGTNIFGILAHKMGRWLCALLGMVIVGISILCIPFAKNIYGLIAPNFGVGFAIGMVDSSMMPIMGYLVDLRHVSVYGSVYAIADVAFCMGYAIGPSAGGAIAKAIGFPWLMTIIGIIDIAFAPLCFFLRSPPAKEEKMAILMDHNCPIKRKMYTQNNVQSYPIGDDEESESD

[5] = target: SERT (Rattus norvegicus, UniProt P31652); assay: [3H]5-HT release from rat brain synaptosomes via SERT; assay type: biochemical; conditions: for Emax: read-out: [3H]5-HT Release % Emax via SERT
Chain of SERT (Rattus norvegicus, UniProt P31652) (P31652 whole entry): as the sequence (P31652 whole entry) above

[6] = target: VMAT2 (Rattus norvegicus, UniProt Q01827); assay: [3H]5-HT release from rat brain synaptic vesicles via VMAT2; assay type: biochemical; conditions: for Concentration at which [3H]5-HT release exceeds Emax of 30%: rat brain synaptic vesicles; for [3H]5-HT Release % Emax via VMAT2: rat brain vesicular fraction, 5-HT control set as Emax = 100%; for Emax: read-out: [3H]5-HT Release % Emax via VMAT2
Chain of VMAT2 (Q01827 whole entry): as the sequence (Q01827 whole entry) above

[7] = target: SERT (Mus musculus, UniProt Q60857); assay: SERTlight two-photon imaging of SERT function in acute mouse brain slices; assay type: cell-based
Chain of SERT (Mus musculus, UniProt Q60857) (Q60857 whole entry): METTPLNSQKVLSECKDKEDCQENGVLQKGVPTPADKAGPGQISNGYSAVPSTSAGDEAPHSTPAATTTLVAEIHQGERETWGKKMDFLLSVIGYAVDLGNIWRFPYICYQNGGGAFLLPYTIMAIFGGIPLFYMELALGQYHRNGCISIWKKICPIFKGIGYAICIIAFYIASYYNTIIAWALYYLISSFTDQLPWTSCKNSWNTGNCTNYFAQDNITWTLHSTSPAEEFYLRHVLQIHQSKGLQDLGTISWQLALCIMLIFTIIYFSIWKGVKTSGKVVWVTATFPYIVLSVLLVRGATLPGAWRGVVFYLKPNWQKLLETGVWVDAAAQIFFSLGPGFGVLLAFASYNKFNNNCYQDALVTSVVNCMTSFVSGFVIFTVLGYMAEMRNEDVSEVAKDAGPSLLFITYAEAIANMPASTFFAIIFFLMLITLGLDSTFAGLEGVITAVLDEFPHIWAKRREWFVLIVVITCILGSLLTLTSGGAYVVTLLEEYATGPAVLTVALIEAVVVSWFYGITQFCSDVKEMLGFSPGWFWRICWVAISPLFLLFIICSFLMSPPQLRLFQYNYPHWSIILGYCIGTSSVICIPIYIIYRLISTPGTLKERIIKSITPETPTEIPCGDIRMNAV

[8] = target: mouse VMAT2 (mVMAT2) (Mus musculus, UniProt Q8BRU6); assay: FFN200 two-photon imaging of VMAT2 function in acute mouse brain slices; assay type: cell-based; conditions: 2 μM for 30 minutes, FFN200 10 μM, dorsal striatum
Chain of mouse VMAT2 (mVMAT2) (Q8BRU6 whole entry): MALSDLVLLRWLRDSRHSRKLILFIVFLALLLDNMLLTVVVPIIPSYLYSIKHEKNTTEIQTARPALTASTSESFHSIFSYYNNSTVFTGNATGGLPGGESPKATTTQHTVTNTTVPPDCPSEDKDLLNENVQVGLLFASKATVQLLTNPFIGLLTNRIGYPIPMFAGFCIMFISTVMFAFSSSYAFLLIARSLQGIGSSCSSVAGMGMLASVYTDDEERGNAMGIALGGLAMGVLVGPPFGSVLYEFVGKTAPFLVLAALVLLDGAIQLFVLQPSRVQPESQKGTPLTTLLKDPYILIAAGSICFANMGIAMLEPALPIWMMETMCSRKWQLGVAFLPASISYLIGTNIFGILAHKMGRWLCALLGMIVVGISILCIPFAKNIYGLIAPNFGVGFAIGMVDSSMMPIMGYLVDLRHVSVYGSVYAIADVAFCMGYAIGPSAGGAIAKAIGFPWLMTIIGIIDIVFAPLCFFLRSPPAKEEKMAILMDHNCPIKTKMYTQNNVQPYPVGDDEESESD

[9] = system: mice; assay: Catalepsy bar test in mice; assay type: in vivo, mouse
[10] = system: mice; assay: Open field locomotor activity test in mice; assay type: in vivo, mouse; conditions: s.c.; for Locomotor activity / sedation in open field test: dose-response
[11] = Pharmacokinetics in mice, estimated free drug concentration in brain; assay type: in vivo, mouse; conditions: mice, 50 mg/kg, s.c.
[12] = target: T1, hOCT2 (Homo sapiens, UniProt O15244); assay: ASP+ fluorescent substrate uptake inhibition at OCT2; assay type: cell-based
T1 sequence (O15244 1-555): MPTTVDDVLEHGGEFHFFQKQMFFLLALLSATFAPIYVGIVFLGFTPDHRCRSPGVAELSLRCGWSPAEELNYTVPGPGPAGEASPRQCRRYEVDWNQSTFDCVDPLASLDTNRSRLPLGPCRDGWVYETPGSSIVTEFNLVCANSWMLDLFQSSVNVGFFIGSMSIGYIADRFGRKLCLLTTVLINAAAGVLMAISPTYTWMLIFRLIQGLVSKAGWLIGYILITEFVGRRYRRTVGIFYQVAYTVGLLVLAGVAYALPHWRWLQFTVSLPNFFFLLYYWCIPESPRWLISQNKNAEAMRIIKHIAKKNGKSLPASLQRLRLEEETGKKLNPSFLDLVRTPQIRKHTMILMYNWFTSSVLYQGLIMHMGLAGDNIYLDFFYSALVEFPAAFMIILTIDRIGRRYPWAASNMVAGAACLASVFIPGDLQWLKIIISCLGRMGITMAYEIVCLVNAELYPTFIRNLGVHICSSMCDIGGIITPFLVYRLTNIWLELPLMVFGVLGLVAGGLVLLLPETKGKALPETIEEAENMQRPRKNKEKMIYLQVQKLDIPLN

[13] = system: NET; conditions: read-out: EC50, NET (release); synaptosomes; cited from earlier work
[14] = system: humans; conditions: therapeutic doses, treated for dyskinesias; cited from earlier work
[15] = read-out: IC50, hVMAT2 (uptake inhibition, FFN206), hVMAT2-HEK cells, fluorescent substrate FFN206, n = 4
[16] = read-out: Uptake Inhibition at SERT IC50, [3H]5-HT (rSERT)
[17] = read-out: [3H]5-HT Uptake Inhibition IC50 ± SD, SERT, n = 3
[18] = read-out: Uptake Inhibition at VMAT2 IC50, [3H]5-HT (rVMAT2), rat brain synaptic vesicles
[19] = rat brain synaptosomes, n = 3, active releaser: EC50 < 10 μM and Emax > 30%
[20] = read-out: [3H]5-HT Release EC50 ± SD via VMAT2

Chain of hVMAT2 (Q05940 whole entry): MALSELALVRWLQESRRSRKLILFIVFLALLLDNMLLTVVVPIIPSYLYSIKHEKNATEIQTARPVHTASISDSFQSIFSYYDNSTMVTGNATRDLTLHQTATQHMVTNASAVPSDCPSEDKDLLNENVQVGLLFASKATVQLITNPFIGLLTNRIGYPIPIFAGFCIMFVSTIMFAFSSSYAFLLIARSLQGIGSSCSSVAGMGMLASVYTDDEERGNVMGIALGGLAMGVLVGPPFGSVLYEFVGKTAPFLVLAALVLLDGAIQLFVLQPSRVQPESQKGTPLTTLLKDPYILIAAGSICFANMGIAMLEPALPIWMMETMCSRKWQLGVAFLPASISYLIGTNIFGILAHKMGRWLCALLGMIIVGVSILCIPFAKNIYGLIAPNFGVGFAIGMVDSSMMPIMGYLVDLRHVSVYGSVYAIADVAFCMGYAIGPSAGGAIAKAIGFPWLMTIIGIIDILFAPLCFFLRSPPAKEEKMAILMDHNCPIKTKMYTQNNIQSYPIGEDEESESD

With CC[C@H]1C[C@@H]2C[C@H]3c4[nH]c5ccc(C#N)cc5c4CCN(C2)[C@@H]13 [5-cyano-ibogamine] as the compound, how does the IC50 [1, 15] read?
Its IC50 is 3.34 µM.

And the IC50 [2]?
Its IC50 is 0.026 µM.

What about the IC50 [3, 16] of the same compound?
Its IC50 is 0.065 µM.

What about the IC50 [3, 17] of the same compound?
The IC50 was 0.0652 ± 0.0054 µM.

What about the IC50 [4, 18] of the same compound?
Its IC50 is 9.62 µM.

What about the “[3H]5-HT Release % Emax via SERT” value ([5]; rat brain synaptosomes, n = 3) of the same compound?
The value was less than 30%.

And the “[3H]5-HT Release EC50 ± SD via SERT” value [5, 19]?
Its value is “inactive”.

And the “Concentration at which [3H]5-HT release exceeds Emax of 30%” value (from here on “Concentration at which … of 30%”) [6]?
The value was greater than 10 µM.

What about the “[3H]5-HT Release % Emax via VMAT2” value [6] of the same compound?
The value was less than 30%.

What about the “Effect on SERTlight labeling of 5-HT axons” value ([7]; 0.2 μM (200 nM), dorsal striatum) of the same compound?
The value was “Marked labeling inhibition; also recorded: marked suppression of SERTlight fluorescent labeling”.

What about the “Effect on SERTlight labeling of 5-HT axons” value ([7]; 2 μM for 30 minutes, SERTlight 10 μM, SNpr, DS, SSp2/3) of the same compound?
Its value is “ablated SERTlight probe uptake; also recorded: fully inhibited SERTlight label”.

And the “Effect on FFN200 uptake / punctate labeling” value [8]?
The value was “no inhibitory effects; also recorded: had no effect on labeling pattern”.

For CCOc1ccc2[nH]c3c(c2c1)CCN1CC2CC(CC)C1C3C2 (stereo not shown) [5-ethoxyibogamine], which “Selectivity hVMAT2 over hSERT” value ([1]; ratio of IC50 values, cell-based fluorometry) is on record?
The value was “more than 100 fold”.

What about the IC50 [1, 15] of the same compound?
Its IC50 is 0.08 µM.

And the IC50 [2]?
Its IC50 is 9.03 µM.

For COc1cc2c(cc1OC)[C@H]1C[C@@H](O)[C@H](CC(C)C)CN1CC2 [DTBZ, dihydrotetrabenazine, reference compound], which “Effect on FFN200 uptake / punctate labeling” value [8] is on record?
The value was “attenuated; also recorded: inhibited the labeling pattern”.

With CCC1CC2CC3c4c(c5cc(O)ccc5n4CC)CCN(C2)C13 (stereo not shown) [N-ethyl-noribogaine] as the compound, how does the IC50 [1, 15] read?
Its IC50 is 0.07 µM.

And the IC50 [2]?
Its IC50 is 1.86 µM.

And the “Potency in synaptosomes ([3H]5-HT, rSERT) relative to transfected cells (hSERT)” value [3]?
The value was “more than 20 fold”.

What about the IC50 [3, 16] of the same compound?
The IC50 was 0.08 µM.

And the IC50 [3, 17]?
Its IC50 is 0.0801 ± 0.0072 µM.

And the IC50 [4, 18]?
The IC50 was 0.054 µM.

What about the “[3H]5-HT Release % Emax via SERT” value ([5]; rat brain synaptosomes, n = 3) of the same compound?
The value was less than 30%.

And the “[3H]5-HT Release EC50 ± SD via SERT” value [5, 19]?
Its value is “inactive”.

What about the “[3H]5-HT Release % Emax via VMAT2” value [6] of the same compound?
The value was 31%.

What about the EC50 [6, 20] of the same compound?
The EC50 was 0.711 ± 0.254 µM.

And the “Catalepsy in bar test” value ([9]; mice, 50 mg/kg, s.c., 60-minute mark)?
Its value is “catalepsy was induced”.

What about the “Catalepsy in bar test” value ([9]; mice, s.c., dose-response) of the same compound?
Its value is “induces catalepsy”.

What about the “Catalepsy in bar test” value ([9]; mouse, in vivo) of the same compound?
Its value is “lack of catalepsy; also recorded: did not induce catalepsy”.

What about the “Locomotion in open field test” value ([10]; 30 mg/kg) of the same compound?
The value was “completely suppressed locomotion”.

And the “Locomotor activity / sedation in open field test” value [10]?
Its value is “suppresses locomotor activity”.

What about the “Cmax, estimated free drug in the brain” value [11] of the same compound?
The value was 11 µM.

With CC[C@H]1C[C@@H]2C[C@H]3c4c(c5cc(OC)ccc5n4C)CCN(C2)[C@@H]13 [N-methyl-ibogaine] as the compound, how does the IC50 ([12]; read-out: IC50, hOCT2, ASP+ fluorescent substrate) read?
Its IC50 is 2.3 µM.

Which IC50 [1, 15] does the source give for CCC1CC2CC3c4c(c5cc(O)ccc5n4C)CCN(C2)C13 (stereo not shown) [N-methyl-noribogaine] here?
Its IC50 is 0.17 µM.

What about the IC50 [2] of the same compound?
The IC50 was 0.059 µM.

And the IC50 [3, 16]?
The IC50 was 0.014 µM.

And the IC50 [3, 17]?
Its IC50 is 0.0136 ± 0.0012 µM.

And the IC50 [4, 18]?
Its IC50 is 0.239 µM.

What about the “[3H]5-HT Release % Emax via SERT” value ([5]; rat brain synaptosomes, n = 3) of the same compound?
Its value is less than 30%.

And the “[3H]5-HT Release EC50 ± SD via SERT” value [5, 19]?
Its value is “inactive”.

And the “[3H]5-HT Release % Emax via VMAT2” value [6]?
The value was 32%.

What about the EC50 [6, 20] of the same compound?
Its EC50 is 0.219 ± 0.036 µM.

With CC(N)Cc1ccccc1 (stereo not shown) [amphetamine, reference compound] as the compound, how does the “[3H]5-HT release from preloaded synaptosomes (qualitative)” value ([5]; rat brain synaptosomes) read?
Its value is “robust [^3H]5-HT release”.

What about the Emax [5] of the same compound?
The Emax was 91%.

And the Emax [6]?
Its Emax is 98%.

For CC[C@H]1C[C@@H]2C[C@H]3c4[nH]c5ccccc5c4CCN(C2)[C@@H]13 [ibogamine], which IC50 [1] is on record?
The IC50 was 3.01 µM.

And the IC50 [12]?
The IC50 was 2 µM.

And the IC50 ([3]; Uptake Inhibition at SERT IC50, [3H]5-HT (rSERT))?
Its IC50 is 0.554 µM.

What about the IC50 ([3]; [3H]5-HT Uptake Inhibition IC50 ± SD, SERT, n = 3) of the same compound?
Its IC50 is 0.554 ± 0.049 µM.

And the IC50 [4]?
The IC50 was greater than 10 µM.

What about the “[3H]5-HT Release EC50 ± SD via SERT” value [5] of the same compound?
Its value is “inactive”.

What about the “[3H]5-HT release from preloaded synaptosomes (qualitative)” value ([5]; rat brain synaptosomes) of the same compound?
The value was “No [^3H]5-HT release was observed”.

And the Emax [5]?
Its Emax is less than 30%.

And the “[3H]5-HT Release EC50 ± SD via VMAT2” value [6]?
Its value is “inactive”.

And the “Concentration at which … of 30%” value [6]?
Its value is greater than 10 µM.

And the Emax [6]?
The Emax was less than 30%.

With CN(C)CCCN1c2ccccc2CCc2ccccc21 [imipramine, reference compound] as the compound, how does the “Selectivity for SERT over VMAT2” value [2] read?
Its value is greater than 100 fold.

Which results are given for CCC1CC2CC3c4oc5ccc(O)cc5c4CCN(C2)C13 (stereo not shown) [oxa-noribogaine]?
IC50 [1, 15]: 0.67 µM; IC50 [2]: 0.9 µM

For COC(=O)[C@H]1[C@H]2C[C@@H]3c4[nH]c5cc(OC)ccc5c4CCN3C[C@H]2C[C@@H](OC(=O)c2cc(OC)c(OC)c(OC)c2)[C@@H]1OC [reserpine, reference compound], which Emax [6] is on record?
The Emax was less than 30%.

Which results are given for NCCc1c[nH]c2ccc(O)cc12 [serotonin (5-HT), serotonin, reference compound]?
EC50 [6]: 0.585 ± 0.129 µM; Emax [6]: 113%

With COc1cc2c(cc1OC)C1CC(=O)C(CC(C)C)CN1CC2 (stereo not shown) [tetrabenazine (TBZ), tetrabenazine, reference compound] as the compound, how does the Emax [6] read?
The Emax was less than 30%.

What about the “Catalepsy in bar test” value ([9]; mice, s.c., dose-response) of the same compound?
Its value is “catalepsy in the bar test in a dose-dependent manner; also recorded: catalepsy can be readily induced”.

What about the “Locomotor activity / sedation in open field test” value [10] of the same compound?
The value was “diminished locomotor activity; also recorded: sedation in the open field test”.

What about the “Parkinsonism as an adverse effect, share of subjects” value [14] of the same compound?
The value was 15–24%.

With N-methyl-5-cyano-ibogamine as the compound, how does the IC50 [1, 15] read?
Its IC50 is 0.44 µM.

What about the IC50 [2] of the same compound?
The IC50 was 0.005 µM.

And the IC50 [3, 16]?
The IC50 was 0.01 µM.

What about the IC50 [3, 17] of the same compound?
Its IC50 is 0.0098 ± 0.0008 µM.

What about the IC50 [4, 18] of the same compound?
Its IC50 is 1.32 µM.

What about the “[3H]5-HT Release % Emax via SERT” value ([5]; rat brain synaptosomes, n = 3) of the same compound?
The value was less than 30%.

What about the “[3H]5-HT Release EC50 ± SD via SERT” value [5, 19] of the same compound?
Its value is “inactive”.

What about the “Concentration at which … of 30%” value [6] of the same compound?
The value was greater than 10 µM.

And the “[3H]5-HT Release % Emax via VMAT2” value [6]?
The value was less than 30%.
